Test results taken from the ASAP Discovery antiviral challenge data (2025).
Converted amounts (≈) assume the structure as drawn. “And” between values parts separate entries of the source, which are not always exact repeats. Equal entries are not always repeated.

Assays:
[1] = mouse; liver_microsomes
[2] = mdck_mdr1
[3] = not given; remark: listed apart in the source
[4] = human; liver_microsomes

| SMILES | microsomal CLint [1] | logD | Papp [2] | solubility kinetic [3] | microsomal CLint [4] |
| --- | --- | --- | --- | --- | --- |
| CC(C)[C@H](Nc1ncnc2[nH]c(-c3cnn(C)c3)cc12)c1ccc2c(c1)S(=O)(=O)CCC2 (single isomer, unassigned) | 255 µL/min/mg and 140 µL/min/mg | 2.9 and 3.2 | 1.18 ×10⁻⁶ cm/s and 1.5 ×10⁻⁶ cm/s | 111 µM (≈ 50 µg/mL) | 169 µL/min/mg and 405 µL/min/mg |
| CC(C)[C@H](Nc1ncnc2[nH]c(-c3cnn(CC(N)=O)c3)cc12)c1ccc2c(n1)OCCO2 (racemic) | 12 µL/min/mg | 2.4 | 2.46 ×10⁻⁶ cm/s | 385 µM (≈ 173 µg/mL) | 14 µL/min/mg |
| N#Cc1cc2c(cc1NC(=O)c1cc(F)cc3[nH]ncc13)CNC2 | 288 µL/min/mg | 0.6 | 3.9 ×10⁻⁶ cm/s | 193 µM (≈ 62 µg/mL) | 16.7 µL/min/mg |
| NCc1cccc(CNC(=O)[C@H](NC(=O)OCc2ccccc2)c2ccc(OCc3ccccc3)cc2)c1 (racemic) | 2.73 µL/min/mg | 2.7 | 1.44 ×10⁻⁶ cm/s | 78 µM (≈ 39.7 µg/mL) | 3.89 µL/min/mg |
| CNC(=O)c1cc(Cl)ccc1NS(=O)(=O)c1ccc(Oc2ccccc2Cl)cc1 | 94 µL/min/mg | 2.4 | 4.91 ×10⁻⁶ cm/s | 25 µM (≈ 11.3 µg/mL) | 106 µL/min/mg |
| CC(C)[C@H](Nc1ncnc2[nH]c(-c3cnn(C)c3C#N)cc12)c1ccc2c(c1)NC(=O)CO2 (racemic) | 177 µL/min/mg | 4.1 | 3.07 ×10⁻⁶ cm/s | 69 µM (≈ 30.5 µg/mL) | 100 µL/min/mg |
| CNC(=O)c1cc2c(N[C@H](c3ccc4c(c3)S(=O)(=O)CCC4)C(C)C)ncnc2[nH]1 (racemic) | 46 µL/min/mg | 2.4 | 0.46 ×10⁻⁶ cm/s | 369 µM (≈ 158 µg/mL) | 77 µL/min/mg |
| CC(C)[C@H](Nc1ncnc2[nH]c(-c3ccc4cncn4c3)cc12)c1ccc2c(c1)S(=O)(=O)CCC2 (racemic) | 170 µL/min/mg | 4 | 0.56 ×10⁻⁶ cm/s | 14 µM (≈ 6.81 µg/mL) | 210 µL/min/mg |
| O=C(Nc1ccc2c(c1)CNC2)c1cccc2[nH]c(C(F)(F)F)cc12 | 12.7 µL/min/mg | 1.5 | 4.1 ×10⁻⁶ cm/s | 372 µM (≈ 128 µg/mL) | 14.1 µL/min/mg |
| CC(C)[C@H](Nc1ncnc2[nH]c(-c3cnn(C)c3)cc12)c1ccc2c(c1)S(=O)(=O)CCC2 (racemic) | 155 µL/min/mg | 3.3 | 1.73 ×10⁻⁶ cm/s | 94 µM (≈ 42.4 µg/mL) | 141 µL/min/mg |
| CCNC(=O)c1cc2c(N[C@H](c3ccc4c(c3)OCCO4)C(C)C)ncnc2[nH]1 (racemic) | 88 µL/min/mg | 3 | 2.41 ×10⁻⁶ cm/s | 72 µM (≈ 28.5 µg/mL) | 85 µL/min/mg |
| CC(C)(C)[C@H](Nc1ncnc2[nH]c(-c3cnn(CC(N)=O)c3)cc12)c1ccc2c(c1)OCCO2 (single isomer, unassigned) | 44 µL/min/mg and 39 µL/min/mg | 3 and 3.1 | 0.364 ×10⁻⁶ cm/s and 1.01 ×10⁻⁶ cm/s | 89 µM and 104 µM | 153 µL/min/mg and 100 µL/min/mg |
| O=C(Nc1ccc2c(c1)CNC2)c1cc(F)cc(-c2cn[nH]c2)c1 | 553 µL/min/mg | 0.7 | 1.62 ×10⁻⁶ cm/s | 184 µM (≈ 59.3 µg/mL) | 36.3 µL/min/mg |
| Cn1ncc(-c2cc3c(N[C@H](c4ccc5c(n4)OCCO5)C(C)(C)C)ncnc3[nH]2)c1C#N (racemic) | 209 µL/min/mg | 2.7 | 13.5 ×10⁻⁶ cm/s | 24 µM (≈ 10.7 µg/mL) | 81 µL/min/mg |
| CC(C)[C@H](Nc1ncnc2[nH]c(-c3cnn(C)c3C#N)cc12)c1ccc2c(c1)S(=O)(=O)CCC2 (racemic) | 440 µL/min/mg | 3.6 | 1.97 ×10⁻⁶ cm/s | 34 µM (≈ 16.2 µg/mL) | 490 µL/min/mg |
| CC(C)[C@H](Nc1ncnc2[nH]c(-c3cnn(C)c3C#N)cc12)c1ccc2c(c1)OCCO2 (racemic) | 218 µL/min/mg | 3 | 4.2 ×10⁻⁶ cm/s | 17 µM (≈ 7.3 µg/mL) | 74 µL/min/mg |
| CNC(=O)c1cc2c(N[C@H](c3ccc4c(c3)NC(=O)CO4)C(C)C)ncnc2[nH]1 (single isomer, unassigned) | 33 µL/min/mg | 2.9 | 1.21 ×10⁻⁶ cm/s | 380 µM (≈ 150 µg/mL) | 175 µL/min/mg |
| CC(C)[C@H](Nc1ncnc2[nH]c(-c3cnn(CCC(N)=O)c3)cc12)c1ccc2c(c1)OCCO2 (racemic) | 62 µL/min/mg | 3 | 1.46 ×10⁻⁶ cm/s | 236 µM (≈ 109 µg/mL) | 99 µL/min/mg |
| COc1ccc2c(c1)CCN(c1ncnc3[nH]ccc13)[C@H]2C(C)C (racemic) | 321 µL/min/mg | 4.33 | 7 ×10⁻⁶ cm/s | 14 µM (≈ 4.51 µg/mL) | 60 µL/min/mg |
| CNC(=O)c1cc2c(N[C@H](c3ccc4c(c3)NC(=O)CO4)C(C)C)ncnc2[nH]1 (racemic) | 20 µL/min/mg | 2.8 | 0.873 ×10⁻⁶ cm/s | 372 µM (≈ 147 µg/mL) | 52 µL/min/mg |
| CCNC(=O)c1cc2c(N[C@H](c3ccc4c(c3)S(=O)(=O)CCO4)C(C)C)ncnc2[nH]1 (racemic) | 26 µL/min/mg | 2.9 | 0.471 ×10⁻⁶ cm/s | 328 µM (≈ 145 µg/mL) | 64 µL/min/mg |
